This is an account of results in ChEMBL document CHEMBL4507263, “Data for DCP probe BAY-474” (2021).

The target of assay [1] is Mitogen-activated protein kinase kinase kinase 9 (Homo sapiens) (UniProt P80192). Description: MLK1 (h) Millipore kinase activity assay. The note with it: Compound concentration 1.0 uM.
Assay [2] concerns the target Vascular endothelial growth factor receptor 3 (Homo sapiens) (UniProt P35916). The assay can be described thus: Flt4 (h) Millipore kinase activity assay. Particulars: Compound concentration 1.0 uM.
The target of assay [3] is Serine/threonine-protein kinase 24 (Homo sapiens) (UniProt Q9Y6E0). The assay can be described thus: MST3 (h) Millipore kinase activity assay. The note with it: Compound concentration 1.0 uM.
Assay [4] addresses Casein kinase I isoform delta (Homo sapiens) (UniProt P48730). Description: CK1delta (h) Millipore kinase activity assay. Particulars: Compound concentration 1.0 uM.
Assay [5] has as its target Tyrosine-protein kinase Fer (Homo sapiens) (UniProt P16591). The assay can be described thus: Fer (h) Millipore kinase activity assay. Particulars: Compound concentration 1.0 uM.
Assay [6] deals with Focal adhesion kinase 1 (Homo sapiens) (UniProt Q05397). The assay can be described thus: FAK (h) Millipore kinase activity assay. Particulars: Compound concentration 1.0 uM.
For assay [7], the target named is Serine/threonine-protein kinase 33 (Homo sapiens) (UniProt Q9BYT3). The assay can be described thus: STK33 (h) Millipore kinase activity assay. The note with it: Compound concentration 1.0 uM.
In assay [8] the target is Serine/threonine-protein kinase WNK3 (Homo sapiens) (UniProt Q9BYP7). Description: WNK3 (h) Millipore kinase activity assay. Particulars: Compound concentration 1.0 uM.
The target of assay [9] is Sigma non-opioid intracellular receptor 1 (Homo sapiens) (UniProt Q99720). Description: Sigma 1 Eurofins-Panlabs radioligand binding assay. Set-up: ligand concentration 8 nM. Particulars: Compound concentration 10.0 uM.
Assay [10] addresses TGF-beta receptor type-2 (Homo sapiens) (UniProt P37173). The note with it: Compound concentration 1000.0 nM.
Assay [11] has as its target Serine/threonine-protein kinase WNK4 (Homo sapiens) (UniProt Q96J92). Particulars: Compound concentration 1000.0 nM.
The target of assay [12] is cGMP-dependent protein kinase 2 (Homo sapiens) (UniProt Q13237). The note with it: Compound concentration 1000.0 nM.
The subject of assay [13] is Receptor-type tyrosine-protein kinase FLT3 (Homo sapiens), P36888 [D835V]. The note with it: Compound concentration 1000.0 nM.
In assay [14] the target is Mitogen-activated protein kinase 15 (Homo sapiens) (UniProt Q8TD08). Particulars: Compound concentration 1000.0 nM.
Assay [15] deals with Glycogen synthase kinase-3 beta (Homo sapiens) (UniProt P49841). The note with it: Compound concentration 1000.0 nM.
For assay [16], the system named is Phosphatidylinositol 4,5-bisphosphate 3-kinase catalytic subunit alpha isoform (Homo sapiens), P42336 [E545K]. Particulars: Compound concentration 1000.0 nM.
Assay [17] deals with Epidermal growth factor receptor (Homo sapiens), P00533 [G719C]. Particulars: Compound concentration 1000.0 nM.
Assay [18] concerns the target High affinity nerve growth factor receptor (Homo sapiens) (UniProt P04629). Particulars: Compound concentration 1000.0 nM.
For assay [19], the target named is Death-associated protein kinase 2 (Homo sapiens) (UniProt Q9UIK4). Particulars: Compound concentration 1000.0 nM.
For assay [20], the target named is Ribosomal protein S6 kinase beta-1 (Homo sapiens) (UniProt P23443). The note with it: Compound concentration 1000.0 nM.
Assay [21] addresses Membrane-associated tyrosine- and threonine-specific cdc2-inhibitory kinase (Homo sapiens) (UniProt Q99640). Particulars: Compound concentration 1000.0 nM.
For assay [22], the system named is Mast/stem cell growth factor receptor Kit (Homo sapiens), P10721 [V559D,T670I]. Particulars: Compound concentration 1000.0 nM.
In assay [23] the target is Proto-oncogene tyrosine-protein kinase receptor Ret (Homo sapiens) (UniProt P07949). The note with it: Compound concentration 1000.0 nM.
The target in assay [24] is Epidermal growth factor receptor (Homo sapiens) (UniProt P00533). Particulars: Compound concentration 1000.0 nM.
For assay [25], the target named is Serine/threonine-protein kinase WNK3 (Homo sapiens) (UniProt Q9BYP7). Particulars: Compound concentration 1000.0 nM.
Assay [26] addresses Serine/threonine-protein kinase 32B (Homo sapiens) (UniProt Q9NY57). The note with it: Compound concentration 1000.0 nM.
The target in assay [27] is 3-phosphoinositide-dependent protein kinase 1 (Homo sapiens) (UniProt O15530). The note with it: Compound concentration 1000.0 nM.
Assay [28] addresses Mitogen-activated protein kinase kinase kinase 15 (Homo sapiens) (UniProt Q6ZN16). The note with it: Compound concentration 1000.0 nM.
Assay [29] has as its target Serine/threonine-protein kinase NLK (Homo sapiens) (UniProt Q9UBE8). The note with it: Compound concentration 1000.0 nM.
For assay [30], the target named is Mitogen-activated protein kinase kinase kinase 14 (Homo sapiens) (UniProt Q99558). Particulars: Compound concentration 1000.0 nM.
The target in assay [31] is Dual specificity mitogen-activated protein kinase kinase 2 (Homo sapiens) (UniProt P36507). The note with it: Compound concentration 1000.0 nM.
Assay [32] concerns the target Phosphatidylinositol 4-kinase beta (Homo sapiens) (UniProt Q9UBF8). The note with it: Compound concentration 1000.0 nM.
The target in assay [33] is Tyrosine-protein kinase ABL2 (Homo sapiens) (UniProt P42684). Particulars: Compound concentration 1000.0 nM.
For assay [34], the target named is Mitogen-activated protein kinase 4 (Homo sapiens) (UniProt P31152). Particulars: Compound concentration 1000.0 nM.
The target in assay [35] is Dual specificity mitogen-activated protein kinase kinase 6 (Homo sapiens) (UniProt P52564). Particulars: Compound concentration 1000.0 nM.
Assay [36] deals with Mitogen-activated protein kinase kinase kinase 11 (Homo sapiens) (UniProt Q16584). Particulars: Compound concentration 1000.0 nM.
Assay [37] addresses G protein-coupled receptor kinase 4 (Homo sapiens) (UniProt P32298). The note with it: Compound concentration 1000.0 nM.
In assay [38] the target is Ephrin type-B receptor 6 (Homo sapiens) (UniProt O15197). Particulars: Compound concentration 1000.0 nM.
Assay [39] can be described thus: GPCRScan assay: inhibition of GABA/PBR. Set-up: species or system Rattus norvegicus; radioligand conc. used [nm] 0.3 – 2.0, parental cells brain tissue.
For assay [40], the target named is Vascular endothelial growth factor receptor 1 (Homo sapiens) (UniProt P17948). Particulars: Compound concentration 1000.0 nM.
Assay [41] deals with Tyrosine-protein kinase Fyn (Homo sapiens) (UniProt P06241). The note with it: Compound concentration 1000.0 nM.
The target of assay [42] is Homeodomain-interacting protein kinase 4 (Homo sapiens) (UniProt Q8NE63). Particulars: Compound concentration 1000.0 nM.
Assay [43] concerns the target Serine/threonine-protein kinase 32A (Homo sapiens) (UniProt Q8WU08). Particulars: Compound concentration 1000.0 nM.
Assay [44] concerns the target Calcium/calmodulin-dependent protein kinase type II subunit gamma (Homo sapiens) (UniProt Q13555). The note with it: Compound concentration 1000.0 nM.
Assay [45] addresses Serine/threonine-protein kinase 38-like (Homo sapiens) (UniProt Q9Y2H1). Particulars: Compound concentration 1000.0 nM.
The target of assay [46] is SRSF protein kinase 2 (Homo sapiens) (UniProt P78362). The note with it: Compound concentration 1000.0 nM.

Chain of Serine/threonine-protein kinase WNK3 (Homo sapiens) (Q9BYP7 whole entry): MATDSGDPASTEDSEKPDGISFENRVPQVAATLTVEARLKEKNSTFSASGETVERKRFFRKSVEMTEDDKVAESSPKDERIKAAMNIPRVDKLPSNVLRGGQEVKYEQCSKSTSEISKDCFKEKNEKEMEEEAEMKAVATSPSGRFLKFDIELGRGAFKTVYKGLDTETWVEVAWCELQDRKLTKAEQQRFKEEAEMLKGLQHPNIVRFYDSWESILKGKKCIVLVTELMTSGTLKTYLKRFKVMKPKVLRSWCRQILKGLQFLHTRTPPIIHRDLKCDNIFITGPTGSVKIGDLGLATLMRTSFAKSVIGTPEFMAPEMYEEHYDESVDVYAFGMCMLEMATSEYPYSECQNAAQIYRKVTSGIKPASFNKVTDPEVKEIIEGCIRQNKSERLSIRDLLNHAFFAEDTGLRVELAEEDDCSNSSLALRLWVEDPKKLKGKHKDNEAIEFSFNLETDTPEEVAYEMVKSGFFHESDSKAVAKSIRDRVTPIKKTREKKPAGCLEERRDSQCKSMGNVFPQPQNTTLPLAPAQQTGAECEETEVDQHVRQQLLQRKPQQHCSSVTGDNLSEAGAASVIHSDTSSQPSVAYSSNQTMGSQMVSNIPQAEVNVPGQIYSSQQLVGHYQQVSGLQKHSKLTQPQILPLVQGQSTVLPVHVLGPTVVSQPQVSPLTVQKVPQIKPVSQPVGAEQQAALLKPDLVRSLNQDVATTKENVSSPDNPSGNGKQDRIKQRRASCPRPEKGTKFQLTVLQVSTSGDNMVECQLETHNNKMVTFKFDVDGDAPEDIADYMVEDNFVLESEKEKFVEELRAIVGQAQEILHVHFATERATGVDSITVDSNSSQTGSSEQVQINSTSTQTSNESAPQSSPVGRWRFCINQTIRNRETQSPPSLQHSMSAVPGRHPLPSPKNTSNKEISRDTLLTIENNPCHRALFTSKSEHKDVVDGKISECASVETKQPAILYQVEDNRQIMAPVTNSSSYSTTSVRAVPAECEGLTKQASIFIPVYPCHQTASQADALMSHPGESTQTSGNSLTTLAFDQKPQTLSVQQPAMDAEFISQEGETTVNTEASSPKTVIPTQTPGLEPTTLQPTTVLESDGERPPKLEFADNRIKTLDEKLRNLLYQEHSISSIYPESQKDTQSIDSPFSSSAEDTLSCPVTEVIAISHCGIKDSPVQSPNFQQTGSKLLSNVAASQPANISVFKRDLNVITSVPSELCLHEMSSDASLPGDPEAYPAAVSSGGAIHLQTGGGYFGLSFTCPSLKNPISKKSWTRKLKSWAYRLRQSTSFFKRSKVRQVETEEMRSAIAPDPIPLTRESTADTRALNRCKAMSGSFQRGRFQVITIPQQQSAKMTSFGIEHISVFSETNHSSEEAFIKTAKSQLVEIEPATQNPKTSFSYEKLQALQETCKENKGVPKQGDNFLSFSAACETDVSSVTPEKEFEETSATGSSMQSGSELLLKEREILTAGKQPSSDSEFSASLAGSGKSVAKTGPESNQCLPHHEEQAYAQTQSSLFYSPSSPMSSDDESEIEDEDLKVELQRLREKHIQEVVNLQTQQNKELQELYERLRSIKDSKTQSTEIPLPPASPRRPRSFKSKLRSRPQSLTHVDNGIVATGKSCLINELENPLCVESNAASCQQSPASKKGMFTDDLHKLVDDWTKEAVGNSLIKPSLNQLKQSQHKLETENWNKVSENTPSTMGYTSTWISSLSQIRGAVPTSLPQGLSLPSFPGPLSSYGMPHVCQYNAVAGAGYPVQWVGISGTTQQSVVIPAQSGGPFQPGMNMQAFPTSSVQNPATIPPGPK
Chain of Serine/threonine-protein kinase WNK4 (Homo sapiens) (Q96J92 whole entry): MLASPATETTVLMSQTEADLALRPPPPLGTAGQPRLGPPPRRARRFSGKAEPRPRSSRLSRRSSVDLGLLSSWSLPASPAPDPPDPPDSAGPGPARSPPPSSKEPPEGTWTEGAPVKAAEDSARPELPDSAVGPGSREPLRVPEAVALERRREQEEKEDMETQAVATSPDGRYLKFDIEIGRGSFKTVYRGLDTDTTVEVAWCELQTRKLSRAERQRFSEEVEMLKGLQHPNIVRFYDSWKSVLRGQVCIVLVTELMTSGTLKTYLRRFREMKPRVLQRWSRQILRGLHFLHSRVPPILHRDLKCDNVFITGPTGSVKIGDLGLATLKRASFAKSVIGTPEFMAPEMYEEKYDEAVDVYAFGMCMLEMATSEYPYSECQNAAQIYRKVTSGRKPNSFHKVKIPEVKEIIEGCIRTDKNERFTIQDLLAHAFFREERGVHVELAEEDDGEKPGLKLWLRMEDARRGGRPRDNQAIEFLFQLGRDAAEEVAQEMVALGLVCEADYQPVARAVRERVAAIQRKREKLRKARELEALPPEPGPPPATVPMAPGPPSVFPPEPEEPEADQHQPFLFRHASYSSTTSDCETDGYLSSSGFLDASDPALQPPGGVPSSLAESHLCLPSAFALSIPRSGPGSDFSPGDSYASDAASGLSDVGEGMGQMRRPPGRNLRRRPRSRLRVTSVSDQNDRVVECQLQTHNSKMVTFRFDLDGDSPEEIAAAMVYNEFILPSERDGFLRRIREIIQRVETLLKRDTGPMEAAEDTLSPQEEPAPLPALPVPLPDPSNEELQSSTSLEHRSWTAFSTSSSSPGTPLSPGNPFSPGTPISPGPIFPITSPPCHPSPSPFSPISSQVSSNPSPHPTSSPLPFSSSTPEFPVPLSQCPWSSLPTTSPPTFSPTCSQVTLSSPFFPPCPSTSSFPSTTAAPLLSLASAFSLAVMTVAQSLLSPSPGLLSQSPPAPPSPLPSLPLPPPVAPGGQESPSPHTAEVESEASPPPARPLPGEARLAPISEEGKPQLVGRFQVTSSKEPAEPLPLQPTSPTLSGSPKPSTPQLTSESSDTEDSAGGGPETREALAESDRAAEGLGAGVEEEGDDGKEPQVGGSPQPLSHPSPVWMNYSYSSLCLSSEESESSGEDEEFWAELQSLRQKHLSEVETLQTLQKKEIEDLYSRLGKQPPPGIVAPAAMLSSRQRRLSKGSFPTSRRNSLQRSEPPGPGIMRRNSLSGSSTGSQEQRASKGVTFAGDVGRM
Chain of 3-phosphoinositide-dependent protein kinase 1 (Homo sapiens) (O15530 whole entry): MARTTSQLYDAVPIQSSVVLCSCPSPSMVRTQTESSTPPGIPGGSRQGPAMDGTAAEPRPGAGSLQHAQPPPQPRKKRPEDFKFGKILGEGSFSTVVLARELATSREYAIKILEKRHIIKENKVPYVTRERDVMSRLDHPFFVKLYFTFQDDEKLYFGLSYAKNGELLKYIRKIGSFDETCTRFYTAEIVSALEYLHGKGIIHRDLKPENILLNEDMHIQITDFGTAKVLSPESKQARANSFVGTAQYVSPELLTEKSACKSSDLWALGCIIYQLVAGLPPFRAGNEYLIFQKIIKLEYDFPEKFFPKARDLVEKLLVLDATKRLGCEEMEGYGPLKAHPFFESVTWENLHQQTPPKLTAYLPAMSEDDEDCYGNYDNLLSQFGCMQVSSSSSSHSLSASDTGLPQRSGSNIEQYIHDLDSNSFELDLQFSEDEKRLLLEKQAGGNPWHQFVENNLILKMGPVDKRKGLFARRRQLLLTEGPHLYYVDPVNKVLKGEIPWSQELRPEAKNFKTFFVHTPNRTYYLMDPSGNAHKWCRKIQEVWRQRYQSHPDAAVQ
Chain of Tyrosine-protein kinase Fer (Homo sapiens) (P16591 whole entry, looked up): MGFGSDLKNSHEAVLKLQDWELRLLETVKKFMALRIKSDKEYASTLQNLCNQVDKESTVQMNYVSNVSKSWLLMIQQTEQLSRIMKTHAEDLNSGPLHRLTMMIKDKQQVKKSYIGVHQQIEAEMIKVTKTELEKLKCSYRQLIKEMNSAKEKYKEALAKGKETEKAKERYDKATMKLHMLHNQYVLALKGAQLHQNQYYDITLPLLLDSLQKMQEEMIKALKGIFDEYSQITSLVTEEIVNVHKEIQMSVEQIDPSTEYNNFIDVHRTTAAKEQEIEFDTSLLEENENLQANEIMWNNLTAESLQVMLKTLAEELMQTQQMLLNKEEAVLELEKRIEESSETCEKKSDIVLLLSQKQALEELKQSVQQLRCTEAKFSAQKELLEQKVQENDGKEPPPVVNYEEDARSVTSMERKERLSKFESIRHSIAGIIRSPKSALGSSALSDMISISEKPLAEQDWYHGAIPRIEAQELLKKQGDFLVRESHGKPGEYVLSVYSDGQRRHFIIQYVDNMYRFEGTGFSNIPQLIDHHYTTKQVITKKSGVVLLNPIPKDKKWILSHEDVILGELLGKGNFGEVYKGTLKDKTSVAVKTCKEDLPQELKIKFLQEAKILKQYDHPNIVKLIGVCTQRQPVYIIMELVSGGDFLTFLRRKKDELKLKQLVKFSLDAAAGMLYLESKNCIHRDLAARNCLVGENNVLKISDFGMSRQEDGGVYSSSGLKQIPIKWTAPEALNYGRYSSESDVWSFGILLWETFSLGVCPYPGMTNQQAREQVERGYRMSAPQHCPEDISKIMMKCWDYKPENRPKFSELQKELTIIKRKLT
Chain of Serine/threonine-protein kinase 24 (Homo sapiens) (Q9Y6E0 whole entry, looked up, canonical isoform): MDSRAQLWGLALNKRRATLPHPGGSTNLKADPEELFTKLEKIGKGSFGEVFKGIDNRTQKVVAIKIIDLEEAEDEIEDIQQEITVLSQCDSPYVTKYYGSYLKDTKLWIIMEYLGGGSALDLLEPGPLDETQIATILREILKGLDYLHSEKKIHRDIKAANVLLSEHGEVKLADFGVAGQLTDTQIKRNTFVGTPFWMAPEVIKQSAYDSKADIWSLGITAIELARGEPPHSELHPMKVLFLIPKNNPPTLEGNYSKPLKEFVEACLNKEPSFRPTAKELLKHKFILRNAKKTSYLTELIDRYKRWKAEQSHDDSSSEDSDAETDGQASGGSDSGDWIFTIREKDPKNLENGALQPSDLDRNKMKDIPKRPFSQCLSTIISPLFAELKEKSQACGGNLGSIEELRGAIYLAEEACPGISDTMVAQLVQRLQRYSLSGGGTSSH
Chain of Sigma non-opioid intracellular receptor 1 (Homo sapiens) (Q99720 whole entry): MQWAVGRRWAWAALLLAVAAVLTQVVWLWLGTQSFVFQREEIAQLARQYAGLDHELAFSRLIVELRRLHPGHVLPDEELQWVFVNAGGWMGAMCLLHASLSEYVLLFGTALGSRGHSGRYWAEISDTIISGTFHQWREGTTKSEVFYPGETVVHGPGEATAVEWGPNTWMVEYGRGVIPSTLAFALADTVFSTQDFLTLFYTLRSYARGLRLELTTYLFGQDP

For orientation: inhibition means the change of the read-out against control, counted positive when it falls. As for `CC1=C(C#N)C(c2ccc3[nH]nc(C)c3c2)C(C#N)=C(C)N1` [BAY-474], the inhibition in assay [1] is -1%; in assay [2] it was 26%; in assay [3], 10%; in [4], 3%; in assay [5] it was 22%; in assay [6], 11%. Further, the inhibition in assay [7] is 2%; in assay [8], -5%; in assay [9], 15%.

By Ki is commonly meant the equilibrium dissociation constant of an inhibitor or competing ligand from its target. One may read the pKi as the Ki on a negative log10 scale, so that one unit is a factor of ten. As for `CC1=C(C#N)[C@@H](c2ccc3[nH]nc(C)c3c2)C(C#N)=C(c2ccc(Cl)cc2)N1` [BAY-827], the residual activity was 74.6% in [10]; 100% in assay [11]; 100% in [12]; 89.7% in [13]; 100% in [14]; 69.6% in [15]. Further, the residual activity was 74.9% in [16]; 100% in assay [17]; 84.6% in assay [18]; 100% in [19]; 62.2% in assay [20]; 100% in assay [21]. Further, the residual activity in assay [22] is 84.4%; in assay [23] it was 100%; in [24] it was 100%; in [25], 100%; in assay [26], 100%; in assay [27], 98.2%. The residual activity in [28] is 100%; in assay [29], 78.9%; in [30], 100%; in [31], 100%; in assay [32] it was 95.1%; in [33], 100%. Further, the residual activity is 89.6% in assay [34]; 100% in [35]; 100% in assay [36]; 100% in [37]; 100% in assay [38]; 100% in assay [40]. Also, the residual activity in assay [41] is 69%; in assay [42] it was 88.1%; in assay [43] it was 100%; in [44], 100%; in assay [45], 100%; in assay [46] it was 100%. For the same compound, the Ki in [39] turned out to be 2400 nM. In assay [39], the pKi was 5.67.
